# US7223365B2, “Device and method for detecting the coagulation functions of global, especially primary hemostasis” (priority 2000, dated 2007)
# Test system: platelet function
# Assay: examination of the coagulation function of the global, in particular the primary, hemostasis; volumetric flow regulated by pressure change in the reaction opening at constant shear rate
# Type: cell-based
# Details: FIG. 29; volumetric flow regulated at specified constant shear rate
# Text: The sealing time and the sealing volume are measurement values for clinical analysis.
smiles,measurement,value
"CC(=O)Oc1ccccc1C(=O)O [ASA, acetylsalicylic acid]",deposition of platelets in the reaction opening,hardly any deposition of platelets
same,measurement limits (sealing time / sealing volume),not reached
